Test results from patent US11274097B2, “2-(het)aryl-substituted condensed bicyclic heterocycle derivatives as pest control agents” (BAYER CROPSCIENCE AKTIENGESELLSCHAFT, priority 2014, dated 2022).
Like-named read-outs stand apart in the source and are kept apart here.

Experiments:
Spodoptera frugiperda = Spodoptera frugiperda spray test (SPODFR); assay type: in vivo; settings: application rate 500 g/ha; maize leaf discs; after 7 days
Description: Spodoptera frugiperda—Spray Test (SPODFR)
(§1) Solvent: 78.0 parts by weight of acetone • • 1.5 parts by weight of dimethylformamide
(§2) Emulsifier: alkylaryl polyglycol ether
(§3) To produce an appropriate active ingredient formulation, 1 part by weight of active ingredient is dissolved using the stated parts by weight of solvent and made up with water containing an emulsifier concentration of 1000 ppm until the desired concentration is attained. To produce further test concentrations, the preparation is diluted with emulsifier-containing water.
Leaf discs of maize (Zea mays) are sprayed with an active ingredient formulation of the desired concentration and, after drying, populated with caterpillars of the armyworm (Spodoptera frugiperda).
After 7 days, the efficacy in % is determined. 100% means that all the caterpillars have been killed; 0% means that no caterpillars have been killed.

[1] = log P by HPLC on a reversed-phase column (C 18), EEC Directive 79/831 Annex V.A8; assay type: physicochemical; settings: for LOGP_NEUTRAL: pH 7.8, 0.001 molar aqueous ammonium hydrogencarbonate/acetonitrile; for chromatographic logP: reversed-phase HPLC column (C 18)
Description: The log P values are measured according to EEC Directive 79/831 Annex V.A8 by HPLC (high-performance liquid chromatography) on a reversed-phase column (C 18). Temperature: 55° C. The LC-MS determination in the acidic range is effected at pH 2.7 using 0.1% aqueous formic acid and acetonitrile (contains 0.1% formic acid) as eluents, linear gradient from 10% acetonitrile to 95% acetonitrile. Called log P (HCOOH) in the table. LC-MS determination in the neutral range is effected at pH 7.8 with 0.001 molar aqueous ammonium hydrogencarbonate solution and acetonitrile as eluents; linear gradient from 10% acetonitrile to 95% acetonitrile. Called log P (neutral) in the table. Calibration is effected with unbranched alkan-2-ones (having 3 to 16 carbon atoms) with known log P values (log P values determined on the basis of the retention times by linear interpolation between two successive alkanone s).

Phaedon cochleariae = Phaedon cochleariae spray test (PHAECO); assay type: in vivo; settings: larvae, after 7 days
Description: Phaedon cochleariae—Spray Test (PHAECO)
as §1, §2, §3
Discs of Chinese cabbage leaves (Brassica pekinensis) are sprayed with an active ingredient formulation of the desired concentration and, after drying, populated with larvae of the mustard beetle (Phaedon cochleariae).
After 7 days, the efficacy in % is determined. 100% means that all the beetle larvae have been killed; 0% means that no beetle larvae have been killed.

Tetranychus urticae = Tetranychus urticae spray test, OP-resistant (TETRUR); assay type: in vivo; settings: bean leaf discs, after 6 days
Description: Tetranychus urticae—Spray Test, OP-Resistant (TETRUR)
as §1, §2, §3
Discs of bean leaves (Phaseolus vulgaris) infested by all stages of the greenhouse red spider mite (Tetranychus urticae) are sprayed with an active ingredient formulation of the desired concentration.
After 6 days, the efficacy in % is determined. 100% means that all the spider mites have been killed; 0% means that none of the spider mites have been killed.

Myzus persicae = Myzus persicae spray test (MYZUPE), Chinese cabbage leaf discs; assay type: in vivo; settings: after 6 days
Description: Myzus persicae—Spray Test (MYZUPE)
Solvent: 78 parts by weight of acetone • • 1.5 parts by weight of dimethylformamide
Emulsifier: alkylaryl poly glycol ether
as §3
Discs of Chinese cabbage leaves (Brassica pekinensis) infested by all stages of the green peach aphid (Myzus persicae) are sprayed with an active ingredient formulation of the desired concentration.
After 6 days, the efficacy in % is determined. 100% means that all the aphids have been killed; 0% means that none of the aphids have been killed.

[2] = acidic range, pH 2.7, 0.1% aqueous formic acid/acetonitrile, 55° C.

| Compound | efficacy (Spodoptera frugiperda) [%] | LOGP_HCOOH [1, 2] | LOGP_NEUTRAL ([1]; neutral range, 55° C.) | efficacy (Phaedon cochleariae; application rate 500 g/ha) [%] | efficacy (Tetranychus urticae; application rate 500 g/ha) [%] | efficacy (Myzus persicae; application rate 500 g/ha) [%] | efficacy (Phaedon cochleariae; application rate 100 g/ha) [%] | chromatographic logP ([1]; acidic range, pH 2.7, 0.1% aqueous formic acid/acetonitrile, 55° C., read-out: LOGP_HCOOH) | chromatographic logP ([1]; neutral range, pH 7.8, read-out: log P (neutral)) | efficacy (Myzus persicae; application rate 20 g/ha) [%] | efficacy (Tetranychus urticae; application rate 100 g/ha) [%] |
| --- | --- | --- | --- | --- | --- | --- | --- | --- | --- | --- | --- |
| CCSc1cc(C(F)(F)F)cnc1-c1nc2cc(C(F)(F)F)ncc2n1C [Example I-2] | 100 | 3.52 | 3.48 | 100 | 90 |  |  |  |  |  |  |
| CSc1cc(F)ccc1-c1nc2cc(C(F)(F)F)ncc2n1C [Example I-4] |  | 2.70 | 2.65 | 100 |  | 90 |  |  |  |  |  |
| Cn1c(-c2ccc(Cl)cc2[S+](C)[O-])nc2cc(C(F)(F)F)ncc21 (stereo not shown) [Example I-10] |  | 2.15 | 2.08 | 100 |  | 100 |  |  |  |  |  |
| Cn1c(-c2ccc(F)cc2[S+](C)[O-])nc2cc(C(F)(F)F)ncc21 (stereo not shown) [Example I-12] |  | 1.88 | 1.83 | 100 |  | 90 |  |  |  |  |  |
| CC[S+]([O-])c1ccc(Cl)cc1-c1nc2cc(C(F)(F)F)ncc2n1C (stereo not shown) [Example I-13] |  | 2.44 | 2.34 | 100 | 90 | 100 |  |  |  |  |  |
| CCSc1ccccc1-c1nc2cc(C(F)(F)F)ncc2n1C [Example I-17] |  | 2.94 | 2.87 |  |  | 90 | 83 |  |  |  |  |
| CCSc1ccc(Cl)cc1-c1nc2cc(C(F)(F)F)ncc2n1C [Example I-19] | 83 | 3.43 | 3.38 | 100 | 90 | 90 |  |  |  |  |  |
| CC[S+]([O-])c1ccccc1-c1nc2cc(C(F)(F)F)ncc2n1C (stereo not shown) [Example I-22] |  | 1.90 | 1.87 | 100 | 90 | 100 |  |  |  |  |  |
| CCSc1cccnc1-c1nc2cc(C(F)(F)F)ncc2n1C [Example I-24] |  | 2.39 | 2.32 | 100 |  | 100 |  |  |  |  |  |
| Cn1c(-c2ncc(C(F)(F)F)cc2[S+](C)[O-])nc2cc(C(F)(F)F)ncc21 (stereo not shown) [Example I-26, 3-methyl-2-[3-(methylsulphinyl)-5-(trifluoromethyl)pyridin-2-yl]-6-(trifluoro-methyl)-3H-imidazo[4,5-c]pyridine] | 100 |  | 2.76 | 100 |  |  |  | 2.81 | 2.76 |  |  |
| CCSc1cc(C(F)(F)F)cnc1-c1nc2nc(C(F)(F)F)ncc2n1C [Example I-28] |  | 3.29 | 3.22 | 100 | 90 |  |  |  |  |  |  |
| CC[S+]([O-])c1cc(C(F)(F)F)cnc1-c1nc2cc(C(F)(F)F)ncc2n1C (stereo not shown) [Example I-37] | 100 | 3.17 | 3.10 | 100 |  |  |  |  |  |  |  |
| CCS(=O)(=O)c1ccc(Cl)cc1-c1nc2cc(C(F)(F)F)ncc2n1C [Example I-38] |  | 2.68 | 2.63 | 100 |  | 90 |  |  |  |  |  |
| CCC[S+]([O-])c1cc(C(F)(F)F)cnc1-c1nc2cc(C(F)(F)F)ncc2n1C (stereo not shown) [Example I-39] | 100 | 3.52 | 3.45 | 100 |  |  |  |  |  | 90 |  |
| CCSc1cc(Cl)ccc1-c1nc2cc(C(F)(F)F)ncc2n1C [Example I-42] | 100 | 3.46 | 3.39 | 100 | 90 | 90 |  |  |  |  |  |
| CCS(=O)(=O)c1cc(Cl)ccc1-c1nc2cc(C(F)(F)F)ncc2n1C [Example I-43] |  | 2.69 | 2.61 | 100 |  | 100 |  |  |  |  |  |
| CC[S+]([O-])c1cc(Cl)ccc1-c1nc2cc(C(F)(F)F)ncc2n1C (stereo not shown) [Example I-44] |  | 2.45 | 2.36 | 100 | 90 | 100 |  |  |  |  |  |
| CCS(=O)(=O)c1ccc(OC)nc1-c1nc2cc(C(F)(F)F)ncc2n1C [Example I-45] |  | 2.53 |  | 100 |  | 90 |  |  |  |  |  |
| CCSc1cccnc1-c1nc2cc(C(F)(F)C(F)(F)F)ncc2n1C [Example I-46] | 100 | 2.98 | 2.92 | 100 |  | 90 |  |  |  |  |  |
| CCSc1cc(C(F)(F)F)cnc1-c1nc2cc(C(F)(F)C(F)(F)F)ncc2n1C [Example I-47] | 100 | 4.10 | 4.02 | 100 |  |  |  |  |  |  |  |
| CCS(=O)(=O)c1c(C(F)(F)F)ccnc1-c1nc2cc(C(F)(F)F)ncc2n1C [Example I-48] | 83 | 2.70 | 2.64 | 100 |  | 100 |  |  |  |  | 90 |
| CCS(=O)(=O)c1ccc(NC(C)=O)nc1-c1nc2cc(C(F)(F)F)ncc2n1C [Example I-49] |  | 2.05 | 1.99 | 100 |  | 90 |  |  |  |  |  |
| CCSc1ccc(NC(C)=O)nc1-c1nc2cc(C(F)(F)F)ncc2n1C [Example I-50] |  | 2.39 | 2.27 | 100 |  | 90 |  |  |  |  |  |
| CC[S+]([O-])c1c(C(F)(F)F)ccnc1-c1nc2cc(C(F)(F)F)ncc2n1C (stereo not shown) [Example I-51] |  | 2.48 |  | 100 |  | 90 |  |  |  |  |  |
| CCS(=O)(=O)c1cc(C(F)(F)F)cnc1-c1nc2cc(Cl)ncc2n1C [Example I-52] |  | 2.61 | 2.51 | 100 |  | 100 |  |  |  |  |  |
| CCSc1ccc(OC)nc1-c1nc2cc(C(F)(F)F)ncc2n1C [Example I-53] |  | 3.12 |  | 100 | 90 |  |  |  |  |  |  |
| Cn1c(-c2ncc(C(F)(F)F)cc2S(=O)(=O)CCF)nc2cc(C(F)(F)F)ncc21 [Example I-54] | 100 | 3.16 | 3.07 | 100 |  |  |  |  |  |  |  |
| CCS(=O)(=O)c1cc(C(N)=O)cnc1-c1nc2cc(C(F)(F)F)ncc2n1C [Example I-56] |  | 1.61 | 1.56 |  |  | 90 |  |  |  |  |  |
| CC[S+]([O-])c1cccnc1-c1nc2cc(C(F)(F)C(F)(F)F)ncc2n1C (stereo not shown) [Example I-61] | 100 | 2.71 | 2.63 | 100 |  | 90 |  |  |  |  |  |
| CC[S+]([O-])c1cc(C(F)(F)F)cnc1-c1nc2cc(C(F)(F)C(F)(F)F)ncc2n1C (stereo not shown) [Example I-63] | 100 | 3.75 | 3.62 | 83 |  |  |  |  |  |  |  |
